Source: paper PMC4557640 (2015)

Assays:
[1] = tested on: Aod(xtal-wtL2) (RNA, riboswitch) GGGUCGUGACUGGCGAACAGGUGGGCCACCACCGGGGAGCGACCCUUGCCGCCCGCCUGGGCAA; test: ITC; details: 135 mM KCl, 15 mM NaCl, 10 mM MgCl2; 10 mM K-HEPES pH 8.0
[2] = tested on: Aod(xtal) (RNA, riboswitch) GGGUCGUGACUGGCGAACAGGUGGGAAACCACCGGGGAGCGACCCUUGCCGCCCGCCUGGGCAA; test: ITC; details: 135 mM KCl, 15 mM NaCl, 10 mM MgCl2; 10 mM K-HEPES pH 8.0

**Q.** NC(=O)c1ncn([C@@H]2O[C@H](COP(=O)(O)O)[C@@H](O)[C@H]2O)c1N was tested. Which KD [1] did it give?
**A.** 470 ± 30 nM

**Q.** And the KD [2]?
**A.** 1080 ± 60 nM
